Data set [1] has as its system brine shrimp (Artemia salina). Put plainly: Brine shrimp toxicity of Nisin formulations (Example 4). To be noted: Nisin in citric acid buffer solution, reduced pH; data not shown. In kind it is in vivo. How it is done:
This Example describes the efficacy of various Nisins: Nisin Z, Nisin A, and ImmuCell Nisin A. This experiment assessed the safety and antimicrobial efficacy of various Nisin formulations in treating Vibrio parahaemolyticus infections, a common pathogen in aquaculture environments. Brine shrimp (Artemia salina) were utilized as a model organism to simulate potential impacts on Pacific whiteleg shrimp (Penaeus vannamei).
Nisin variants (Nisin A, Nisin Z, and ImmuCell Nisin A) were dissolved in either citric acid buffer (CAB, pH 3.4) for Nisin A or dH2O for Nisin Z to make a stock solution of 4.86 mg/mL. Serial dilutions were performed to achieve the different concentrations (4.86 mg/mL to 0.005 mg/mL) for the experiments.
Artemia salina eggs were hatched in artificial seawater (Instant Ocean) under controlled conditions. Newly hatched brine shrimp were then exposed to varying concentrations of each Nisin solution in experimental tanks. A separate set of tanks was used for each type of Nisin formulation.
Control tanks (treated with either CAB or saline water) were prepared to observe the natural behavior and survival rate of Artemia salina without Nisin exposure.
Brine shrimp were divided into different tanks for exposure to varying concentrations (2.43 mg/mL, 0.608 mg/mL, 0.152 mg/mL, and 0.038 mg/mL) of Nisin A, Nisin Z, and ImmuCell Nisin A.
Mortality and behavior of the brine shrimp were recorded at 24 and 48 hours post-exposure. For the antimicrobial tests, the diameter of inhibition zones on agar plates containing the laboratory control strains were measured and recorded.

The test system of data set [2] is Vibrio alginolyticus. Put plainly: Minimum inhibitory concentration by serial two-fold dilution spotted on Vibrio lawns. In kind it is cell-based. To be noted: individual V. alginolyticus lines; 37° C., 16 to 20 hours. How it is done:
(§1) This Example describes the materials and methods, and results of a serial dilution experiment to determine the Minimum Inhibitory Concentration (MIC) of Nisin in reducing a concentration of pathogenic Vibrio.
(§2) On the day before the experiment, Vibrio stock were prepared by sterilizing an inoculation loop, cooling the product, and extracting cells. Such extract was incubated at 37° C. for 16 to 20 hours. The density of cells was normalized to a cell density of approximately 10^7 to 10^8 CFU/mL and 100 uL lawns were prepared at a cell density of about 10^6 to 10^7 CFU using sterile glass beads. Four lawns were made so that each Nisin dilution could be tested on two identical plates.
(§3) 5 μL of two-fold dilutions (See Table 1, below) of Nisin (Immucell; 99% pure), or shrimp feed (without Nisin), citric acid, or DH20 negative controls, respectively, were spotted on the plates, which were incubated at 37° C. for 16 to 20 hours. The minimum inhibitory concentration was determined. In particular, plates were characterized based upon the presence (0) or absence (1) of Vibrio growth.

Data set [3] deals with Vibrio parahaemolyticus. The description is as above. In kind it is cell-based. The note with it: individual V. parahaemolyticus lines; 37° C., 16 to 20 hours. How it is done:
as §1, §2, §3

Data set [4] relates to Vibrio cholerae. The description is as above. In kind it is cell-based. To be noted: individual V. cholerae lines; 37° C., 16 to 20 hours. The protocol:
as §1, §2, §3

Several values for one entry are separate records, joined by “and”; a condition that tells them apart may be missing. Identical values can stand only once. No end group written: not given here.

In general, MIC refers to the lowest concentration that inhibits growth of the organism. A high value points to a less susceptible organism.

As to “Nisin: Nisin (Immucell; 99% pure) in Example 1; bacteriocin Nisin in shrimp feed at 0.84, 8.4 and 84 mg/g in Example 2 (ITSISLCTPGCKTGALMGCNMKTATCHCSIHVSK; cysteine pairing not given here; also: lantibiotic, modifications not placed; UniProt P13068 24-57, looked up)”, in data set [1], the “cause of mortality in toxicity trials” value was “mortality that is not related to the peptide Nisin itself”. Besides, the MIC in data set [2] is 8.3 ug/mL and 66.1 ug/mL and 2,115.0 ug/mL and 0.01 wt/v % and 0.07 wt/v % and 2.12 wt/v %; in data set [3], 1,057.5 ug/mL and 33.1 ug/mL and 66.1 ug/mL and 528.8 ug/mL and 8.3 ug/mL and 1.06 wt/v % and 0.03 wt/v % and 0.07 wt/v % and 0.53 wt/v % and 0.01 wt/v %; in data set [4] it was 1,057.5 ug/mL and 8.3 ug/mL and 2,115.0 ug/mL and 132.2 ug/mL and 1.06 wt/v % and 0.01 wt/v % and 2.12 wt/v % and 0.13 wt/v %.
